Test system: SRS-A
Assay: inhibition of SRS-A induced contraction of guinea pig ileum
Format: cell-based
Settings: Cavia porcellus, 0.25 h; for inhibition at 1 µM: read-out: […], compound concentration 1 × 10^-6 M, SRS-A agonist 40 μg/ml, read-out: PERCENTAGE ANTAGONISM; for inhibition at 5 µM: read-out: […], compound concentration 5 × 10^-6 M, SRS-A agonist 40 μg/ml, read-out: PERCENTAGE ANTAGONISM
Protocol: The SRS-A antagonist activity of the compounds of this invention is measured by the ability of the active medicament to inhibit SRS-A induced contraction of guinea pig ileum. In this test system, sections of ileum are resected from guinea pigs and placed in 5 ml. tissue baths containing a modified Tyrode's solution. One end of the tissue is fixed to a glass tissue holder, the other is connected to a force-displacement transducer and the tissue is placed under a tension of 500 mg. Isometric tissue contractions are recorded on a six channel polygraph. Baths are constantly aerated with 95% O2 -5% CO2. After a 20 minute stabilization period a concentration of the appropriate agonist which provides a contraction height of 60-80% of the maximum obtainable to that agonist (as determined from full sequential concentration--response curves in separate experiments) is added to the tissue bath and the response recorded. The procedure is repeated until reproducible responses are obtained. For most agonists, two applications in rapid succession, followed 15 minutes later by a third, is sufficient to establish reproducibility. Experimental tissues are incubated with the selected concentration of the test compounds for 15 minutes. Experimental and control tissues are subjected to 5 bath changes during the incubation interval. Changes in bath fluid during the incubation period are helpful in insuring the reproducibility of tissue responses to the agonist. The same concentration of the agonist is reapplied in the presence of the test compound and the response registered and compared with controls. Percent inhibition produced by the test compound is calculated by substracting the mean percentage change in control tissue from the means percentage change in tissues exposed to the test compound. Additional compounds are then evaluated as long as the tissue remains reproducibly responsive to the agonist. Six tissues obtained from 6 animals are used simultaneously--3 controls and 3 experimental.
The compounds of this invention tested at concentrations of from 5×10^-5 M to 1×10^-6 M produce marked antagonism of partially purified slow reacting substance of anaphylaxis obtained from guinea pig lung. The agonist is employed at a concentration of 40 μg/ml. Representative of this effect, tabulated below are a number of the claimed compounds and percentage antagonism of SRS-A at various compound concentrations.

With `O=S(=O)(Nc1ccc(Cl)c(C(F)(F)F)c1)c1ccc2c(c1)CN(S(=O)(=O)NS(=O)(=O)N1CCc3ccc(S(=O)(=O)Nc4ccc(Cl)c(C(F)(F)F)c4)cc3C1)CC2` [Compound 12] the inhibition at 1 µM was 41% and the inhibition at 5 µM was 91.5%.
`O=S(=O)(Nc1cccc(Br)c1)c1ccc2c(c1)CN(S(=O)(=O)NS(=O)(=O)N1CCc3ccc(S(=O)(=O)Nc4cccc(Br)c4)cc3C1)CC2` [Compound 5] showed an inhibition at 1 µM of 54% and an inhibition at 5 µM of 68%.
`O=S(=O)(Nc1ccc(Cl)c(Cl)c1)c1ccc2c(c1)CN(S(=O)(=O)NS(=O)(=O)N1CCc3ccc(S(=O)(=O)Nc4ccc(Cl)c(Cl)c4)cc3C1)CC2` [Compound 11] showed an inhibition at 1 µM of 49% and an inhibition at 5 µM of 56%.
Work on `O=S(=O)(Nc1ccc(Cl)cc1)c1ccc2c(c1)CN(S(=O)(=O)NS(=O)(=O)N1CCc3ccc(S(=O)(=O)Nc4ccc(Cl)cc4)cc3C1)CC2` [Compound 4] yielded an inhibition at 5 µM of 51.2%.
Work on `O=S(=O)(Nc1cccc(Cl)c1)c1c(Cl)ccc2c1CN(S(=O)(=O)NS(=O)(=O)N1CCc3ccc(Cl)c(S(=O)(=O)Nc4cccc(Cl)c4)c3C1)CC2` [Compound 23, N,N'-Bis[7-Chloro-8-(3-Chlorobenzeneaminosulfonyl)-1,2,3,4-Tetrahydroisoquinolyl]disulfonylimide] yielded an inhibition at 5 µM of 48%.
Molecule `Cc1ccc(NS(=O)(=O)c2ccc3c(c2)CN(S(=O)(=O)NS(=O)(=O)N2CCc4ccc(S(=O)(=O)Nc5ccc(C)c(Cl)c5)cc4C2)CC3)cc1Cl` [Compound 14] has an inhibition at 5 µM of 84%.
In the case of `O=S(=O)(Nc1cccc(Cl)c1)c1ccc(Cl)c2c1CCN(S(=O)(=O)NS(=O)(=O)N1CCc3c(S(=O)(=O)Nc4cccc(Cl)c4)ccc(Cl)c3C1)C2` [Compound 30, N,N'-bis[8-chloro-5-(3-chlorobenzeneaminosulfonyl)-1,2,3,4-tetrahydroisoquinolyl]disulfonylimide], the inhibition at 5 µM is reported as 63%.
`O=[N+]([O-])c1cccc(NS(=O)(=O)c2ccc3c(c2)CN(S(=O)(=O)NS(=O)(=O)N2CCc4ccc(S(=O)(=O)Nc5cccc([N+](=O)[O-])c5)cc4C2)CC3)c1` [Compound 9] showed an inhibition at 5 µM of 36%.
For `CN(c1ccc(Cl)cc1)S(=O)(=O)c1ccc2c(c1)CN(S(=O)(=O)NS(=O)(=O)N1CCc3ccc(S(=O)(=O)N(C)c4ccc(Cl)cc4)cc3C1)CC2` [Compound 15], the inhibition at 5 µM was 57.3%.
With `O=S(=O)(Nc1cccc(Cl)c1)c1ccc2c(c1)CN(S(=O)(=O)NS(=O)(=O)N1CCc3ccc(S(=O)(=O)Nc4cccc(Cl)c4)cc3C1)CC2` [Compound 1, N,N'-bis[7-(3-chlorobenzeneaminosulfonyl)-1,2,3,4-tetrahydroisoquinolyl]disulfonylimide] the inhibition at 5 µM was 67.5%.
In the case of `O=S(=O)(Nc1cccc(C(F)(F)F)c1)c1ccc2c(c1)CN(S(=O)(=O)NS(=O)(=O)N1CCc3ccc(S(=O)(=O)Nc4cccc(C(F)(F)F)c4)cc3C1)CC2` [Compound 7], the inhibition at 5 µM is reported as 65%.
Work on `O=S(=O)(Nc1ccc(Br)cc1)c1ccc2c(c1)CN(S(=O)(=O)NS(=O)(=O)N1CCc3ccc(S(=O)(=O)Nc4ccc(Br)cc4)cc3C1)CC2` [Compound 6] yielded an inhibition at 5 µM of 42.2%.
`Cc1ccc(NS(=O)(=O)c2ccc3c(c2)CN(S(=O)(=O)NS(=O)(=O)N2CCc4ccc(S(=O)(=O)Nc5ccc(C)c(C)c5)cc4C2)CC3)cc1C` [Compound 13] was tested, and the inhibition at 5 µM was 62%.
`O=S(=O)(Nc1ccccc1)c1ccc2c(c1)CN(S(=O)(=O)NS(=O)(=O)N1CCc3ccc(S(=O)(=O)Nc4ccccc4)cc3C1)CC2` [Compound 2] gave an inhibition at 5 µM of 42.3%.
With `O=S(=O)(Nc1ccccc1Cl)c1ccc2c(c1)CN(S(=O)(=O)NS(=O)(=O)N1CCc3ccc(S(=O)(=O)Nc4ccccc4Cl)cc3C1)CC2` [Compound 3] the inhibition at 5 µM was 24.8%.
In the case of `O=S(=O)(Nc1ccc(C(F)(F)F)cc1)c1ccc2c(c1)CN(S(=O)(=O)NS(=O)(=O)N1CCc3ccc(S(=O)(=O)Nc4ccc(C(F)(F)F)cc4)cc3C1)CC2` [Compound 8], the inhibition at 1 µM is reported as 49% and the inhibition at 5 µM is reported as 57%.

Reference: patent US4315935A, “N,N'-Bis[substituted-1,2,3,4-tetrahydroisoquinolinolyl]disulfonylimides and antiallergic compositions and method of use” (SmithKline Corporation, priority 1980, dated 1982)
